# Data published in patent US20230242526A1 (Zentaur Therapeutics International Limited, priority 2020, published 2023).
# How the values were obtained:
# [1] = Body weight in the HCC1806 xenograft study; format: in vivo, BALB/c nude mice; conditions: 30 mg/kg P.O. BID
# Procedure: (§1) When the average tumor volume reached 80-120 mm^3, 42 tumor-bearing mice were randomized into 7 groups (6 mice per group) according to tumor volume. The grouping day was defined as Day 0. Treatment was applied immediately after grouping animals on the same day.
# (§2) The body weight of the testing animals were measured twice a week after grouping. Tumor volumes by the length and width of the tumor were measured by electric calipers and the tumor volume (V) was calculated as follows: V=(length×width^2)/2. The individual relative tumor volume (RTV) was calculated as follows: RTV=Vt/V0, where Vt was the volume on each day, and V0 was the volume at the beginning of the treatment.
# (§3) Results were expressed as mean±S.E.M. Comparisons between two groups were made by corresponding test, p<0.05 were considered to be significant.
# [2] = in vitro; conditions: human, microsomes, pH 7.4, t1/2 human
# Procedure: (§4) Human liver microsomes (cat. No. 452161), mouse liver microsomes (cat. No. 452701), were purchased from Corning.
# (§5) Samples were analyzed using LC-MS/MS using a SCIEX API 4000 mass spectrometer coupled with Agilent HPLC analytical system. After separation on a ZORBAX XDB-C18 column (5 μm, 50×2.1 mm, column No. 50-282) using an acetonitrile-water gradient system, peaks were analyzed by mass spectroscopy (MS) using ESI ionization in Q1 and Q3 scan mode.
# (§6) The LC and MS are all controlled by Analyst software.
# (§7) The liver microsomes were incubated with 1.0 μM of the testing compound at 37° C. The incubation mixture contained 100 mM PBS buffer (pH=7.4), 3 mM MgCl2 and 1 mM NADPH. The concentration of liver microsome in the incubation mixture was 0.5 mg/mL for testing compound, and 0.2 mg/mL for MDZ and the total volume is 0.2 mL. […] Aliquots were withdrawn at time points of 0 min, 5 min and 20 min for MDZ. The reactions were terminated by transferring the aliquots to a methanol solution containing the internal standard […] for analytical quantification. The quenched samples were analyzed by LC-MS/MS. The incubations were carried out in duplicates. The metabolic stability of the testing compounds by the liver microsomes of human and mice is expressed as elimination half-life (t1/2). The results are shown as the means of duplicate determinations±SD.
# [3] = in vitro; conditions: mouse, microsomes, pH 7.4, t1/2 mouse
# Procedure: as §4, §5, §6, §7
# [4] = system: HCC1806 s.c. xenografts; assay: HCC1806 s.c. breast cancer xenograft efficacy (tumor volume, relative tumor volume, tumor weight, TGI); format: in vivo, BALB/c nude mice; conditions: 30 mg/kg P.O. BID
# Procedure: The in vivo potency of anti-tumor activities of Comp. 4, Comp. 37, Comp. 5, Comp. 28, Comp. 163, and Comp. 164 have been evaluated on the growth of HCC1806 s.c. xenografts in BALB/c nude mice.
# The testing compounds Comp. 4, Comp. 37, Comp. 5, Comp. 28, Comp. 163, and Comp. 164 were prepared according the synthetic routes set forth in the above Examples. The testing formulations for compounds Comp. 4, Comp. 37, Comp. 5, Comp. 28, Comp. 163, and Comp. 164 were prepared as liquid formulation in a liquid vehicle containing 0.1% Tween-80 (purchased form Sinopharm Chemical Reagent Co., Ltd, Lot No. 20190322), 0.5% methyl cellulose (purchased from SIGMA, Lot No. SLBR8963V) in water.
# A total of 42+8 female BALB/c nude mice were ordered from Shanghai LC Laboratory Animal Co. Ltd. The animals were specific pathogen free and approximately 4-5 weeks old upon arrival at PharmaLegacy Laboratories.
# HCC1806 cell cultures were maintained at 37° C. under 5% CO2 in RPMI-1640 medium supplemented with 10% FBS and were subsequently cultured within 10 passages before inoculated into the mice.
# as §1, §2
# Tumors were collected at the end of the study (Day 21), the mice were sacrificed. Tumor was collected, weighed, photographed.
# as §3
# [5] = molecular target: CDK9/Cyclin T1 (Homo sapiens, UniProt P50750); assay: CDK9/Cyclin T1 kinase assay; format: biochemical
# CDK9/Cyclin T1, sequence (P50750 whole entry): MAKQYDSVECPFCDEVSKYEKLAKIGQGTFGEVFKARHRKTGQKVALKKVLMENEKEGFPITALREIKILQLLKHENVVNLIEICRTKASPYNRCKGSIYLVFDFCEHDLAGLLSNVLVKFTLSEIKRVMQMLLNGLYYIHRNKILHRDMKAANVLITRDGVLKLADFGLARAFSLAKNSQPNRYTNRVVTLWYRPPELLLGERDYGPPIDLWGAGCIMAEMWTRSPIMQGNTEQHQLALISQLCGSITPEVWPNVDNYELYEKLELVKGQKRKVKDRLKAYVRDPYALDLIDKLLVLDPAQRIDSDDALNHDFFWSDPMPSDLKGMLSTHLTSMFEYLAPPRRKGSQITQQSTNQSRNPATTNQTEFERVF
# CDK9/Cyclin T1, sequence (O60563 whole entry partner): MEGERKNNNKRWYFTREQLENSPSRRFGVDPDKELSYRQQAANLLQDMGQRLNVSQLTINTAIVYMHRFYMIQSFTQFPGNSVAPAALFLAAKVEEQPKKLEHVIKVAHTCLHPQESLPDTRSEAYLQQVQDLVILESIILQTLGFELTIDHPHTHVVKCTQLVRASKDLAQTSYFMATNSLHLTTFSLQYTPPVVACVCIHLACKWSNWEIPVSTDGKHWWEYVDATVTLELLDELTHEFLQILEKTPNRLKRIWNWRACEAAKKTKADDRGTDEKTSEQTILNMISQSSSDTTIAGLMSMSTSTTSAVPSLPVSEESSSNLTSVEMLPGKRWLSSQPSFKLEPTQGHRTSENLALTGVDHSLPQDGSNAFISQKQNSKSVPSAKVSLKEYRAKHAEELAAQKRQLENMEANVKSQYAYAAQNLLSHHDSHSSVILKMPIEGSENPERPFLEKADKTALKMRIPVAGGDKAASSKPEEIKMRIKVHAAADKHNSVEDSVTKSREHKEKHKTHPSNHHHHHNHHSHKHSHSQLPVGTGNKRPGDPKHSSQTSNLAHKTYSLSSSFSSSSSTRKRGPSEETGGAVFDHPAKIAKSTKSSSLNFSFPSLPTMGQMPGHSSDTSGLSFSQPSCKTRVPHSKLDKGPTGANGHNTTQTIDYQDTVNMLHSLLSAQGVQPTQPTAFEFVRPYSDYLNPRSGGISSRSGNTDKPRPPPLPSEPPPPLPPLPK
# Procedure: (1). Recombinant enzymes CDK1, CDK2, CDK4, CDK6, CDK9, cyclin B1, cyclin A2, cyclin D3, cyclin E1, cyclin T1 were cloned and purified at Wuxi Biortus Biochemistry Co. Ltd.
# (8) Peptide substrate-CDK9 (Ahx-GSRTPMY-NH2, Scilight-Peptide, Cat. C0769102).
# The test compounds were dissolved and diluted in DMSO. A stock DMSO solution of the test compound of the invention was prepared by dissolving the compound in DMSO to form a 10 mM solution.
# 2 μL of testing compound solutions and 5 μL of enzyme solution were added into the 384-well microplate followed by a 10 minute incubation. The reaction was then initiated by the addition of 5 μL of peptide substrate and ATP mixture solution and incubated at 27° C. for 30 minutes. The enzyme reaction in each well was terminated by adding 4 μL of 120 mM EDTA solution. Each assay was carried out in duplicates.
# DMSO was used as negative control (0%) for enzyme activity. 20 μM Staurosporine was used as positive control (100%) for enzyme activity.
# Plates were read for fluorescence on a Caliper EZ Reader II by separating the fluorescent labeled substrate from the enzyme phosphorylation product by electrophoresis. Data were collected and analyzed using GraphPad Prism version 6.0 software.
# Dose-response curves were plotted from inhibition data generated, each in duplicate, from 10 point serial dilutions of inhibitory compounds. Concentration of compound was plotted against % kinase activity. To generate IC50 values, the dose-response curves were then fitted to a standard sigmoidal curve and IC50 values were derived by nonlinear regression analysis.
smiles,measurement,setting,value
"[2H]C(F)(F)c1cc2cnc(NC3CCN(S(C)(=O)=O)CC3)nc2n([C@@H]2CCC[C@@]2(C)O)c1=O [Comp. 28, (−)-6-(difluoromethyl-d)-8-((1R,2R)-2-hydroxy-2-methylcyclopentyl)-2-((1-(methylsulfonyl)piperidin-4-yl)amino)pyrido[2,3-d]pyrimidin-7(8H)-one]",body weight compared with G1 vehicle,[1],significant lower on day 17
same,Body weight D0,"[1]; group mean, day 0",17.93 g
same,Body weight D3,"[1]; group mean, day 3",17.81 g
same,Body weight D7,"[1]; group mean, day 7",17.78 g
same,Body weight D10,"[1]; group mean, day 10",17.66 g
same,Body weight D14,"[1]; group mean, day 14",17.75 g
same,Body weight D17,"[1]; group mean, day 17",17.84 g
same,Body weight D21,"[1]; group mean, day 21",16.80 g
same,half-life at 1 μM,[2],14.4 h
same,half-life at 1 μM,[3],3.03 h
same,Tumor Growth Inhibition D3,"[4]; vs control vehicle, day 3",15.44%
same,Tumor Growth Inhibition D7,"[4]; vs control vehicle, day 7",11.52%
same,Tumor Growth Inhibition D10,"[4]; vs control vehicle, day 10",15.19%
same,Tumor Growth Inhibition D14,"[4]; vs control vehicle, day 14",12.60%
same,Tumor Growth Inhibition D17,"[4]; vs control vehicle, day 17",26.69%
same,Tumor Growth Inhibition D21,"[4]; vs control vehicle, day 21",34.01%
same,Tumor volume D0,"[4]; group mean, day 0",111.13 mm^3
same,Tumor volume D3,"[4]; group mean, day 3",267.25 mm^3
same,Tumor volume D7,"[4]; group mean, day 7",564.40 mm^3
same,Tumor volume D10,"[4]; group mean, day 10",876.82 mm^3
same,Tumor volume D14,"[4]; group mean, day 14",1288.11 mm^3
same,Tumor volume D17,"[4]; group mean, day 17",1438.12 mm^3
same,Tumor volume D21,"[4]; group mean, day 21",1549.07 mm^3
same,Tumor weight,"[4]; group mean, end of the study (Day 21)",2.84 g
same,IC50,[5],3.64 µM
